Reference: article PMC4929558, “A novel AhR ligand, 2AI, protects the retina from environmental stress” (Scientific Reports, 2016)

Columns and labels:
[1] = molecular target: T1, AhR (XRE-luciferase reporter assay) (Homo sapiens, UniProt P35869); assay: XRE-luciferase reporter assay in cells; assay type: cell-based; conditions: agonist
T1 construct: with Aryl hydrocarbon receptor nuclear translocator
T1 sequence (P35869 11-848): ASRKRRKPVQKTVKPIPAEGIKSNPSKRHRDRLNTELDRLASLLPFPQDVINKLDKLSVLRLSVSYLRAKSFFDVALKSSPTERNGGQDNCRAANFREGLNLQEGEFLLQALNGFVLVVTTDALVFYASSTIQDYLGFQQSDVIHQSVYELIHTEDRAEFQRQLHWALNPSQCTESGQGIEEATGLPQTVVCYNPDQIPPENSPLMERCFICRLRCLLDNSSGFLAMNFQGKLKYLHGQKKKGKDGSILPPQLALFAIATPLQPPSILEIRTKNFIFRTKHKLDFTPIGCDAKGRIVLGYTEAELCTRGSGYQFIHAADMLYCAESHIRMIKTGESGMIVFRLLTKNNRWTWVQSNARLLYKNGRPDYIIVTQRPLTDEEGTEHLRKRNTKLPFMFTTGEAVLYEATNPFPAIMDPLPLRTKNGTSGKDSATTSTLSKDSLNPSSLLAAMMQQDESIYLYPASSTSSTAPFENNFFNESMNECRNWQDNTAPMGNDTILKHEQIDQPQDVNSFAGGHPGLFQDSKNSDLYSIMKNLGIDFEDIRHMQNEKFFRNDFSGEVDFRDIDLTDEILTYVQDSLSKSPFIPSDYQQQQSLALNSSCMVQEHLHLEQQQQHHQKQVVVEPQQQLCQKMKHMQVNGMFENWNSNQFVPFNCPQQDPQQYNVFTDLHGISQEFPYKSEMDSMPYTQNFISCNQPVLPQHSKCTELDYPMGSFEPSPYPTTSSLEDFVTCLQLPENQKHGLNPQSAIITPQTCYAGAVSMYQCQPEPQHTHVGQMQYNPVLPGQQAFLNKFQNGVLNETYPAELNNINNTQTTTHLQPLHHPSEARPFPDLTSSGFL

[2] = molecular target: T2, human AhR protein (humanized AhR liver cytosol) (Homo sapiens, UniProt P35869); assay: photoaffinity ligand competition, hepatic cytosol; assay type: binding; conditions: competition with 2-azido-3-[125I]iodo-7,8-dibromodibenzo-p-dioxin (0.21 pmol, saturating), 150 μg liver protein, room temperature 20 min, then UV 402 nm
T2 construct: human AhR expressed in liver of humanized transgenic mice, B6.Cg-Ahr^tm3.1Bra Tg (Alb-cre, Ttr-AhR)1GHP; hepatic cytosol, not purified
T2 sequence (P35869 11-848): T1 sequence (P35869 11-848)

[3] = molecular target: T2, human AhR protein (humanized AhR liver cytosol); assay: photoaffinity labelling, SDS-PAGE, gamma counting; assay type: binding; conditions: labelled compound; covalent after UV photolysis; 0.21 pmol per tube, 150 μg liver protein

EC50 [1] [µM] | SMILES | % photoaffinity label bound [2] | photoaffinity labelling, SDS-PAGE, gamma counting [3]
3.5 | Nc1ccccc1-c1cc2ccccc2[nH]1 [2AI] | 2AI was able to out-compete the photoaffinity label bound to the human AhR protein | 
 | [N-]=[N+]=Nc1cc2c(cc1I)Oc1cc(Br)c(Br)cc1O2 [PAL, 2-azido-3-[125I]iodo-7,8-dibromodibenzo-p-dioxin] |  | Labeled AHR bands were excised and counted using a γ counter
